As a reminder, the IC50 is the concentration that inhibits the measured activity by half. The term clearance denotes a measure of how efficiently the substance is removed, as volume per time. One may read the half-life as how long it takes for the measured level to halve. The low end stands for rapid decline, the high end for slow decline.

The conditions of series [1]: mice; cited from earlier work.
For series [2] the following is noted: mice; cited from earlier work. The source holds these as a separate data set.
The conditions of series [3]: cited from earlier work.
The conditions of series [4]: cited from earlier work. This is another data set of the same source.
Series [5] deals with T1, AAK1 (Homo sapiens, UniProt Q2M2I8).
T1 construct: purchased Signalchem A01-11G-10
As to the kind of experiment: In vitro AAK1 enzyme activity assay (ADP-Glo). The note with it: inhibitory activity against AAK1. Type of series: biochemical. The procedure:
Compound stock solution (concentration: 10 mM, dissolved in DMSO) was diluted with DMSO to 0.2 mM and then diluted with DMSO in 5-fold gradient to obtain compound solutions with 10 concentrations. Subsequently, the compound solutions with different concentrations were diluted 50-fold in 1× kinase reaction buffer (containing 40 mM Tris, 20 mM MgCl2, 0.1% BSA and 0.5 mM DTT) for later use. AAK1 (Signalchem, Cat# A01-11G-10) was diluted with 1× kinase reaction buffer to 2-fold the final concentration (final concentrations: 30 nM and 28 nM). AAK1 was added to a 384-well white plate at 2 µL/well, and the compounds were then added at 1 µL/well. The plate was sealed with a plate-sealing film, centrifuged at 1000 rpm for 30 seconds and then placed at room temperature for 10 minutes. […] The RLU (Relative luminescence unit) signal values were read using a Biotek multimode microplate reader, and the percent inhibition was calculated according to the following formula: [1-(LUM compound-LUM positive control) / (LUM negative control-LUM positive control)] × 100. IC50 values were calculated using Graphpad 7.0 software using a four-parameter non-linear fit equation. […]

Series [6] has as its target T2, hERG potassium channel (Homo sapiens, UniProt Q12809).
T2 construct: expressed in transfected cells
As to the kind of experiment: hERG potassium channel activity assay, manual whole-cell patch clamp. Type of series: cell-based. The note with it: IC50, inhibition of hERG potassium channel current, CHO cells stably expressing hERG. From the text:
2.1 Experimental preparation: Experimental platform: manual electrophysiological patch-clamp system; Cell line: Chinese hamster ovary (CHO) cell line stably expressing hERG potassium channel.
2.2. Experimental method: In Chinese Hamster Ovary (CHO) cells stably expressing hERG potassium channel, the whole-cell patch-clamp technique was used to record hERG potassium channel current at room temperature. The glass microelectrodes were pulled from glass electrode blanks (BF150-86-10, Sutter) by a glass microelectrode puller. The tip resistance of the microelectrodes after being filled with intrapipette solution was about 2-5 MΩ. The glass microelectrodes were connected to the patch-clamp amplifier by inserting them into an amplifier probe. The clamping voltage and data recording were controlled and recorded by the pClamp 10 software through a computer, with a sampling frequency of 10 kHz and a filtering frequency of 2 kHz. After the whole cell records were obtained, the cells were clamped at -80 mV, and the step voltage that induced the hERG potassium current (I hERG) was depolarised from -80 mV to +20 mV for 2 s, then repolarised to -50 mV, and returned to -80 mV after 1 s. […]
Compound IC50 was calculated using GraphPad Prism 5 software by fitting according to the following equation: Y = Bottom + (Top−Bottom)/(1+10^(∧)((LogIC50−X)×HillSlope)) [formula] […]
On the technique in general: Block of hERG is tested as a sign of cardiac risk.

A short description of series [7]: Pharmacokinetic assay in mice. It counts as in vivo, ICR mice. The note with it: plasma. The procedure: 3.1 Experimental animals: Male ICR mice, 20-25 g, 6 mice/compound, purchased from Chengdu Dossy Experimental Animals Co., Ltd.
3.2 Experimental design: on the day of the experiment, the ICR mice were randomly grouped according to their body weights. The animals were fasted with water available for 12-14 h one day before the administration, and were fed 4 h after the administration. Table 3 Administration information
vehicle for intravenous administration: 5%DMA+5%HS-15+90%NS; vehicle for intragastric administration: 0.5% MC; before and after administration, 0.06 mL of blood was taken from the orbit under isoflurane anaesthesia and placed in an EDTAK2 centrifuge tube. The tube was centrifuged at 5000 rpm at 4°C for 10 min, and plasma was collected. The blood sampling time points for both the intravenous administration group and intragastric administration group were 0, 5 min, 15 min, 30 min, 1 h, 2 h, 4 h, 7 h and 24 h. Before analysis and detection, all samples were stored at -80°C, and the samples were quantitatively analysed by LC-MS/MS. Table 4 Pharmacokinetic parameters of test compounds in plasma of mice

Series [8] in a line: Pharmacokinetic assay in rats. It counts as in vivo, SD rats. The settings on record: rat, po, plasma, Intragastric administration (5 mg/kg). As for the experimental part: 4.1 Experimental animals: Male SD rats, about 220 g, 6-8 weeks old, 6 rats/compound, purchased from Chengdu Dossy Experimental Animals Co., Ltd.
4.2 Experimental design: on the day of the experiment, 6 SD rats were randomly grouped according to their body weights. The animals were fasted with water available for 12-14 h one day before the administration, and were fed 4 h after the administration. Table 5 Administration information
Before and after the administration, 0.1 ml of blood was taken from the orbit under isoflurane anaesthesia and placed in an EDTAK2 centrifuge tube. The tube was centrifuged at 5000 rpm at 4°C for 10 min, and plasma was collected. Blood sampling time points for the intravenous administration group: 0, 5 min, 15 min, 30 min, 1 h, 2 h, 4 h, 6 h, 8 h and 24 h; blood sampling time points for the intragastric administration group: 0, 5 min, 15 min, 30 min, 1 h, 2 h, 4 h, 6 h, 8 h and 24 h. Before analysis and detection, all samples were stored at -80°C.

The nature of series [9]: Liver microsomal stability assay, rat liver microsomal model. Type of series: in vitro ADME. The note with it: rat liver microsomes, 1 µM, 37°C, NADPH. As for the experimental part:
In this experiment, liver microsomes of five species, including human, monkey, dog, rat and mouse, were used as in vitro models to evaluate the metabolic stability of the test compound.
At 37°C, 1 µM of the test compound was co-incubated with microsomal protein and coenzyme NADPH. At given time points of the reaction (5 min, 10 min, 20 min, 30 min, and 60 min), the reaction was terminated by adding ice-cold acetonitrile containing an internal standard. The LC-MS/MS method was used to measure the concentration of the test compound in the sample. T1/2 was calculated using the ln value of the percentage of drug remaining in the incubation system and the incubation time. In addition, the intrinsic clearance in liver microsomes CLint(mic) and the intrinsic clearance in liver CLint(Liver) were further calculated. Table 7 Results of test compounds in rat liver microsomal model
In general terms: Liver microsomes are a subcellular fraction often used to study metabolism.

In series [10] the test system is PC12 cells. The note with it: cited from earlier work.
[11] abbreviates: Intragastric administration (10 mg/kg), 10 mg/kg.

T1 sequence (Q2M2I8 27-365 limits assumed): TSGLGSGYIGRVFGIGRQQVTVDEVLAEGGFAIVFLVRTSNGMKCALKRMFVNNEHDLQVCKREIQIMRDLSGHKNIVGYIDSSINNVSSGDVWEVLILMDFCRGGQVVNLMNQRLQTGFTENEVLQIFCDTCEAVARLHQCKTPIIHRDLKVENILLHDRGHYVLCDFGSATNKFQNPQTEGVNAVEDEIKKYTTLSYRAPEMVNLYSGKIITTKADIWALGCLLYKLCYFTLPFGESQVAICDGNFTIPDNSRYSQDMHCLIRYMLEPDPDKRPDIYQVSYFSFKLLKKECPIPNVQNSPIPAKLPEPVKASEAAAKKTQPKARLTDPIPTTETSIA
T2 sequence (Q12809 whole entry): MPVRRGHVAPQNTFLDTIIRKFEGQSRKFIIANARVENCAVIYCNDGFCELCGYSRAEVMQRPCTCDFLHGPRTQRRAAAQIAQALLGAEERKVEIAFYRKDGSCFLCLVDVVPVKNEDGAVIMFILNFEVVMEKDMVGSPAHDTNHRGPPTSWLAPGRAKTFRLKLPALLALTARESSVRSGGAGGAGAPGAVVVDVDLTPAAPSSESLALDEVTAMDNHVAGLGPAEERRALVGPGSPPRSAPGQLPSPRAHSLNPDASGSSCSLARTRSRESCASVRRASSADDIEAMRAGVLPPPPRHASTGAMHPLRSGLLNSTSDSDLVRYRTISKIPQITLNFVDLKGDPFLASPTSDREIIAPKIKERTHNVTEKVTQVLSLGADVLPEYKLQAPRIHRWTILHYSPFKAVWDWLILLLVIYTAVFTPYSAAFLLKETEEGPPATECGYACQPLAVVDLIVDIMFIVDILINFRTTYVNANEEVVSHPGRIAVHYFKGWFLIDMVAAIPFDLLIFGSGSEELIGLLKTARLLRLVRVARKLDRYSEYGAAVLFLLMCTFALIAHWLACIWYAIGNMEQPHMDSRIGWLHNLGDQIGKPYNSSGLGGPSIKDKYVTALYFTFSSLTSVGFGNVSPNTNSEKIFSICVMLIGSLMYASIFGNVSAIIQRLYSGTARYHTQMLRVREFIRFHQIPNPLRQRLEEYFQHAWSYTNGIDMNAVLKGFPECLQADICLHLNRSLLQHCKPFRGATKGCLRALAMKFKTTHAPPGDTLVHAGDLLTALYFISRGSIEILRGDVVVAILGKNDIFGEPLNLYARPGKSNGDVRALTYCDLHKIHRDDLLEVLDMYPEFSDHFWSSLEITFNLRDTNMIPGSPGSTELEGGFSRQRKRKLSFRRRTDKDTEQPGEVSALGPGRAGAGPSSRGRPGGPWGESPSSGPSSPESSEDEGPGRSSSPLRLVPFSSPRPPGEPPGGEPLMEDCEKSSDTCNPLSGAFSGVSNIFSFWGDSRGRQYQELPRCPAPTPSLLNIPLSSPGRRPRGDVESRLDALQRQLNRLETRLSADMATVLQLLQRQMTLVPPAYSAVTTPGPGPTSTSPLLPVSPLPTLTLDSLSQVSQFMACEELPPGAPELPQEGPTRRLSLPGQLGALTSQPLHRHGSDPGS

In the case of `COc1ncccc1-c1cnn2ccc(N3CCN(C(=O)OC(C)C)CC3)nc12` [LP-935509], the “pain responses in phase II of the formalin model” value in [1] is listed as “significantly attenuate”. In addition, the “mechanical allodynia induced by SNL” value in series [2] is “significantly attenuate”. Besides, the “pain responses in the mouse chronic constriction injury (CCI) model” value in series [3] was “significantly attenuate”. Besides, in [4], the “pain responses in the mouse streptozotocin-induced diabetic neuropathy model” value was “significantly attenuate”.
`CC(O)(CO)C[C@](C)(N)COc1ccc(-c2ccnc(C(F)F)c2)nc1C(F)F` (single isomer, unassigned) [Compound 1-2]: the IC50 was no more than 0.02 µM in series [5] and 13.7 µM in series [6]. Further, in series [7] (mouse, Intravenous administration (2.5 mg/kg)), the clearance is 57.8 mL/min/kg. Moreover, in series [7] (mouse, Intravenous administration (2.5 mg/kg), read-out: Vdss), the Vd was determined as 10.5 L/kg. Besides, the half-life in series [7] (mouse, iv, 2.5 mg/kg, Intravenous administration (2.5 mg/kg)) was 2.53 h; in series [7] (mouse, po, 10 mg/kg, Intragastric administration (10 mg/kg)) it was 3.09 h; in [8], 4.52 h. The AUC(0-t) in series [7] (mouse, iv, 2.5 mg/kg, Intravenous administration (2.5 mg/kg), read-out: AUC0-t) came to 630 ng·h/mL; in series [7] (mouse, po, 10 mg/kg, Intragastric administration (10 mg/kg), read-out: AUC0-t) it was 3520 ng·h/mL; in series [8] it was 4050 ng·h/mL. Moreover, the “Percentage of drug remaining after 60 min of incubation” value in [9] is given as greater than 99%.
`CC(O)(CO)C[C@](C)(N)COc1ccc(-c2ccnc(C(F)F)c2)nc1C(F)F` (single isomer, unassigned) [Compound 1-1] registered an IC50 in series [5] of no more than 0.02 µM. In [6], this compound gave a concentration for half-maximal inhibition (IC50) of 6.73 µM. In series [7] (setting [11]), this compound registered an AUC(0-t) of 4400 ng·h/mL and a T1/2 of 4.82 h. Also, the “Percentage of drug remaining after 60 min of incubation” value in series [9] stood at 93.7%.
For the compound `COC(=O)[C@@]1(O)C[C@H]2O[C@]1(C)n1c3ccccc3c3c4c(c5c6ccccc6n2c5c31)C(=O)NC4` [Compound K252a], in series [10], the “ErbB4 accumulation in the plasma membrane or in close proximity to the plasma membrane” value is “increased”, the ErbB4 expression result is “increased” and the neuregulin-1-induced neurite outgrowth entry is on record as “potentiates”.

The record behind these values is patent EP4803512A1, “COMPOUND CAPABLE OF INHIBITING CONNEXIN-ASSOCIATED KINASE 1, PREPARATION, AND USE THEREOF” (Xizang Haisco Pharmaceutical Co., Ltd., priority 2023, dated 2025).
